Laboratory results: US8617614B2, “Sustained release preparation for tissue regeneration therapy” (Ono Pharmaceutical Co., Ltd., priority 2006, dated 2013)

What was measured:
[1] = test system: hippocampal CA1 region nerve cells; assay: Number of nerve cells in hippocampal CA1 region, rat 4-VO model (Nissl staining); format: in vivo
[2] = test system: rat common carotid artery occlusion-disobliteration (4-VO) model; assay: Water maze learning ability, rat 4-VO model; format: in vivo
From the text: Nine-week-old male Crlj:WI rats were intraperitoneally administered pentobarbital sodium and, while under anesthesia, were secured in the prone position to a brain stereotaxic instrument. An occipital incision was made in the skin and muscle layer of the neck region, the left and right pterygoid foramina of the first cervical vertebra were exposed, and the vertebral arteries were thermocoagulated by inserting the tip of a soldering iron into each pterygoid foramen, thereby permanently occluding the bilateral vertebral arteries. Next, a midline incision was made in the anterior region of the neck, the common carotid arteries on both sides were exposed and detached, a silicone tube was passed under the arteries and placed annularly around the arteries, following which the skin of the neck region was sutured together. On the day after vertebral arterial cauterization, the animals were anesthetized with diethyl ether, then immobilized in the supine position. Both common carotid arteries were exposed using the silicone tube that had been placed on the common carotid arteries in the neck region and were temporarily occluded for 10 minutes with Sugita clips, then reopened. Aside from ischemia and disobliteration, the same procedure was carried out also on a normal group ([…]).
• Test Group 1: 4-VO+medium, 8 days • Test Group 2: 4-VO+present drug, 10 mg/kg, twice daily, for 8 days • Test Group 3: 4-VO+present drug, 1 mg/kg, twice daily, for 42 days (evaluation of nerve cell number only) (2) Evaluation of number of nerve cells in CA1 region excised from brain (Groups 4 to 7) following measurement of water maze learning ability (Groups 4 to 7) • Test Group 4: normal (sham group)+medium, 42 days (normal control) • Test Group 5: 4-VO+medium, 42 days (solvent control) • Test Group 6: 4-VO+present drug, 10 mg/kg, twice daily for 42 days • Test Group 7: 4-VO+solvent for 8 days+present drug, 10 mg/kg, twice daily, for 34 days (evaluation of regenerative activity) (3) Pathology: Perfusion and fixing of the brain was carried out on day 8 in Test Groups 1 and 2, and on the day after the water maze learning ability test in Groups 4 to 7. The number of nerve cells was then counted by the same method as described above in Test 1. In Test Group 3, after drug administration was stopped, the brains were fixed at the same time as in Test Groups 4 to 7. (4) Measurement of Water Maze Learning Ability
Using Test Groups […], the […] were investigated with a Morris water maze in such a way as to avoid a bias between the groups.
A clear acrylic platform (about 12 cm in diameter and about 30 cm in height) which cannot be visually detected and a circular pool (about 148 cm in diameter and about 44 cm in height) made of gray vinyl chloride and filled with water (water temperature, 17 to 18° C.) to a height of about 32 cm so that the platform is hidden by the water were used.
The pool was divided into four quadrants, the platform was placed at the center of the fourth quadrant (about 36 cm from the center of the pool), and light bulbs were placed at the perimeter of the pool to provide a spatial reference.
Following the final drug dose, a drug-free period of at least 2 weeks was provided, after which the rat was placed in the pool from one of several points A to E with its head facing the circular pool wall, and the time it took to reach the platform (goal latency; seconds) was measured with a stopwatch (the measurement time was a maximum of 90 seconds). When the rat reached the platform within 90 seconds and remained on the platform for 30 seconds, it was judged to be aware of the platform location and measurement was brought to an end.
Goal latency measurements were carried out twice daily (once in the morning, and once in the afternoon) on days 1 to 4. The rat was placed in the pool from the various points A to E with its head facing the wall of the circular pool. […]

SDF-1 = SDF-1 production promoting effect, angiogenesis kit culture, ELISA; format: cell-based, human; conditions: 100 nmol/L
Description: An angiogenesis kit (Kurabo Industries Ltd.) composed of normal human umbilical vein endothelial cells and normal human skin fibroblasts was procured and used.
Using a carbon dioxide incubator (BNA-121D) and using Angiogenesis Culture 2 provided with the angiogenesis kit as the liquid culture, culturing was carried out in a wet environment at 37° C. with 5% carbon dioxide/95% air.
Immediately after the kit arrived, the cells were cultured for 3 hours, following which the liquid culture was replaced and culturing was continued. Three days after the start of culturing, the liquid culture was again replaced. Six days after the start of culturing, treatment with the present drug was carried out by replacing the liquid culture. The treatment concentration was set to 100 nmol/L in each case. DMSO treatment was carried out as a negative control. Six, 24, 48 and 72 hours after treatment with the present drug, the culture supernatant was collected and furnished for measurement of the growth factors. The measured growth factors were EGF and SDF-1.
The culture supernatant was measured with the following ELISA kits.
Human SDF-1α Immunoassay (R&D Systems Inc., DSA00)

[3] = Test Group 6: 10 mg/kg oral twice daily 42 days
[4] = Test Group 7: solvent 8 days, then 10 mg/kg oral twice daily 34 days

In the case of `O=C(O)COc1cccc2c1CCC=C2CCO/N=C(\c1ccccc1)c1cccnc1` [present drug, ({5-[2-({[(1E)-phenyl(pyridin-3-yl)methylene]amino}oxy)ethyl]-7,8-dihydronaphthalen-1-yl}oxy)acetic acid], the “number of hippocampal CA1 pyramidal nerve cells relative to the group given the medium (Test Group 3)” value ([1]; rat 4-VO Test 1, day 42, s.c. twice daily, present drug 10, ornoprostil 0.1, PGE1•αCD 1.5 and 3 mg/kg) is reported as “significant increase”, the “decrease in the number of hippocampal CA1 region nerve cells relative to Test Group 1” value ([1]; rat 4-VO Test 2, Test Group 2: 10 mg/kg oral twice daily, day 8) is reported as “significant suppression” and the “number of hippocampal CA1 region nerve cells” value ([1]; rat 4-VO Test 2, Test Group 7: medium up to day 8, 10 mg/kg oral for 34 days from day 9) is reported as “increasing trend”. The “number of hippocampal CA1 region nerve cells relative to Test Group 4” value ([1]; rat 4-VO Test 2, oral 1 mg/kg (Test Group 3)) was “significant increases”, the “number of hippocampal CA1 region nerve cells relative to Test Group 4” value ([1]; rat 4-VO Test 2, oral 10 mg/kg (Test Group 6)) was “significant increases” and the “Distance traveled until rat reaches platform, AUC for Days 1 to 4 (average)” value [2, 3] was 3932.8 ± 1115.1. For the same compound, the “Goal latency (seconds) Acquisition trials Day 1 (average)” value [2, 3] was 71.8 ± 18.3 s, the “Goal latency (seconds) Acquisition trials Day 2 (average)” value [2, 3] was 58.8 ± 22.1 s and the “Goal latency (seconds) Acquisition trials Day 3 (average)” value [2, 3] was 41.3 ± 28.8 s. The “Goal latency (seconds) Acquisition trials Day 4 (average)” value [2, 3] was 33.9 ± 23.2 s, the “Goal latency (seconds) Acquisition trials Trials 1 to 8 (average)” value [2, 3] was 51.5 ± 11.9 s and the “Goal latency, AUC for Days 1 to 4 (average)” value [2, 3] was 152.9 ± 42.7. For the same compound, the “goal latency (seconds) and distance traveled relative to the solvent control group (Test Group 5)” value ([2]; Test Group 6: oral 10 mg/kg twice daily) was “significant shortening”, the “goal latency (seconds) and distance traveled relative to the solvent control group (Test Group 5)” value ([2]; Test Group 7: medium up to day 8, oral 10 mg/kg twice daily from day 9) was “significant shortening” and the “Distance traveled until rat reaches platform, AUC for Days 1 to 4 (average)” value [2, 4] was 3850.5 ± 832.5. The “Goal latency (seconds) Acquisition trials Day 1 (average)” value [2, 4] was 73.8 ± 15.2 s, the “Goal latency (seconds) Acquisition trials Day 2 (average)” value [2, 4] was 55.4 ± 29.6 s and the “Goal latency (seconds) Acquisition trials Day 3 (average)” value [2, 4] was 41.7 ± 26.7 s. The “Goal latency (seconds) Acquisition trials Day 4 (average)” value [2, 4] was 25.8 ± 15.2 s, the “Goal latency (seconds) Acquisition trials Trials 1 to 8 (average)” value [2, 4] was 49.2 ± 10.1 s and the “Goal latency, AUC for Days 1 to 4 (average)” value [2, 4] was 146.9 ± 40.5. For the same compound, the “SDF-1 relative to the solvent control group” value (SDF-1; 72 hours after treatment) was “significantly increased” and the “SDF-1, Drug group” value (SDF-1; culture supernatant 72 hours after treatment) was 383 ± 36.0 pg/mL.
